Source: patent US10081624B2, “Heterocyclic compound” (Takeda Pharmaceutical Company Limited, priority 2014, dated 2018)

What was measured:
HDAC6 enzyme = molecular target: T1, HDAC6 enzyme (Homo sapiens, UniProt Q9UBN7); assay: HDAC6 enzyme inhibitory assay (HDAC-Glo I/II Assay kit); assay type: biochemical; settings: 1 μM test compound; for inhibition at 1 µM: read-out: HDAC6 inhibitory rate (%) (1 μM)
T1 construct: prepared by transducing full length HDAC1 and HDAC6 genes into Sf-9 insect cells; GST; purchased SignalChem; host or cells: Sf-9 insect cells
T1 sequence (Q9UBN7 1-1215): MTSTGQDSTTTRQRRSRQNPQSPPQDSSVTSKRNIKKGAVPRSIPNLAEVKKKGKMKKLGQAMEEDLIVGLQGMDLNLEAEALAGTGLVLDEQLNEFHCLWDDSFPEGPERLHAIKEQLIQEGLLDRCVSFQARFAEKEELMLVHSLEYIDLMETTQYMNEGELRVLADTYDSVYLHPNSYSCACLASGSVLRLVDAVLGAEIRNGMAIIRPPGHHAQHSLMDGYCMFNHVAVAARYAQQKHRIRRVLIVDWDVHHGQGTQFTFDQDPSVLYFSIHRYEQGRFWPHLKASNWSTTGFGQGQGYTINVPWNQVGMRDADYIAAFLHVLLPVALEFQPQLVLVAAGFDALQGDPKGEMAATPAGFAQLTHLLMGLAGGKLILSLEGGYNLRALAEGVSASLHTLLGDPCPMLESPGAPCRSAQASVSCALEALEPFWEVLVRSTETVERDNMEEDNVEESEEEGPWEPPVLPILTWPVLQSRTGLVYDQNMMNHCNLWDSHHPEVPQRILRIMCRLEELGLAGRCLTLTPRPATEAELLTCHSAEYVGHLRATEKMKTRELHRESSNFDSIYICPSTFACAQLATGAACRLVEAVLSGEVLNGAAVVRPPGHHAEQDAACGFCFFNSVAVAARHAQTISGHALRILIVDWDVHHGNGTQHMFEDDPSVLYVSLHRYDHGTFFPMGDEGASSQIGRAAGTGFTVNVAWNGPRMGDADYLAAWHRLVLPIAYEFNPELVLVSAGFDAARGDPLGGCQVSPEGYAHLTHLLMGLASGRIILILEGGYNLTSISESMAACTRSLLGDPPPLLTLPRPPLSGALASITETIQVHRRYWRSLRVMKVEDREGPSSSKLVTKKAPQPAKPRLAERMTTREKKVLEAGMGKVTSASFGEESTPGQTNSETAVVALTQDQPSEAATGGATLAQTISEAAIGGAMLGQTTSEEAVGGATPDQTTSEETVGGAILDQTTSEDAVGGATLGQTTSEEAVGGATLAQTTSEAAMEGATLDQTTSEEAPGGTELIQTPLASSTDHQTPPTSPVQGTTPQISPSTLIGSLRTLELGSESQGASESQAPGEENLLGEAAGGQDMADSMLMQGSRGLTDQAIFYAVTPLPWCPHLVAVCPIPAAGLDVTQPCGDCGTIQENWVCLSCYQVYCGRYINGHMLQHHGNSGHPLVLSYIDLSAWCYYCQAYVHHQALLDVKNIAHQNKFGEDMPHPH
Procedure, shortened: (§1)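 Relative activity was calculated from luminescence, with wells lacking enzyme defined as 100% inhibition. The enzymes were full-length HDAC1 or HDAC6 from Sf-9 cells, preincubated with test compound for 60 min before a 20-min substrate-developer reaction at room temperature.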

HDAC1 enzyme = molecular target: T2, HDAC1 enzyme (Homo sapiens, UniProt Q13547); assay: HDAC1 enzyme inhibitory assay (HDAC-Glo I/II Assay kit); assay type: biochemical; settings: 1 μM test compound; for inhibition at 1 µM: read-out: HDAC1 inhibitory rate (%) (1 μM)
T2 construct: prepared by transducing full length HDAC1 and HDAC6 genes into Sf-9 insect cells; GST; purchased SignalChem; host or cells: Sf-9 insect cells
T2 sequence (Q13547 whole entry): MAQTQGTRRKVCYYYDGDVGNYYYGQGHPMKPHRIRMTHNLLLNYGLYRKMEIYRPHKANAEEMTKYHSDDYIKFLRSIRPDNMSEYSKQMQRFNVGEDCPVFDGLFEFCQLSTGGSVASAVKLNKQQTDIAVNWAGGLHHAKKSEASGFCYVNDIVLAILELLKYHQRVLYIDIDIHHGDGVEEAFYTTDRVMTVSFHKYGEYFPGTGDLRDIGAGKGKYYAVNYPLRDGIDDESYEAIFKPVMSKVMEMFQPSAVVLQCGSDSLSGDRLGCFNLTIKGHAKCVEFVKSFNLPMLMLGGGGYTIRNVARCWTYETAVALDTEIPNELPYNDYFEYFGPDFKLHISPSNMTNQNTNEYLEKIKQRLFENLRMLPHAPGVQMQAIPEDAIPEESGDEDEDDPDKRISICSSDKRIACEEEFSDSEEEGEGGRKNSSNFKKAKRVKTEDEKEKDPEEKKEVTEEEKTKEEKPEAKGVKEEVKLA
Procedure, shortened: as §1

Structure (SMILES)	inhibition at 1 µM (HDAC6 enzyme) [%]	inhibition at 1 µM (HDAC1 enzyme) [%]	HDAC6 inhibitory rate (%) (1 μM) (HDAC6 enzyme)	HDAC1 inhibitory rate (%) (1 μM) (HDAC1 enzyme)
O=C(NC[C@H]1COCCN1C(=O)N1CCC(c2ccccc2)C1)c1ccc(-c2noc(C(F)(F)F)n2)cc1 (stereo partly drawn) [Example 293, N-(((3S)-4-((3-phenylpyrrolidin-1-yl)carbonyl)morpholin-3-yl)methyl)-4-(5-(trifluoromethyl)-1,2,4-oxadiazol-3-yl)benzamide]	90	14	–	–
O=C(NC[C@H]1COCCN1C(=O)N1CCC[C@H]1C(F)(F)F)c1ccc(-c2noc(C(F)(F)F)n2)cc1 [Example 287, 4-(5-(trifluoromethyl)-1,2,4-oxadiazol-3-yl)-N-(((3S)-4-(((2S)-2-(trifluoromethyl)pyrrolidin-1-yl)carbonyl)morpholin-3-yl)methyl)benzamide]	91	2	–	–
Cc1nnsc1C(=O)N1CCOCC1CNC(=O)c1ccc(-c2noc(C(F)(F)F)n2)s1 (centres unmarked) [Example 237, N-((4-((4-methyl-1,2,3-thiadiazol-5-yl)carbonyl)morpholin-3-yl)methyl)-5-(5-(trifluoromethyl)-1,2,4-oxadiazol-3-yl)thiophene-2-carboxamide]	98	27	–	–
NC(=O)[C@@H]1CCCN1C(=O)N1CCOC[C@@H]1CNC(=O)c1ccc(-c2noc(C(F)(F)F)n2)cc1 [Example 283, 1-(((3S)-3-(((4-(5-(trifluoromethyl)-1,2,4-oxadiazol-3-yl)benzoyl)amino)methyl)morpholin-4-yl)carbonyl)-L-prolinamide]	73	-1	–	–
O=C(NCC1CN(C(=O)c2ccccc2)CCN1C(=O)c1ccccc1)c1ccc(-c2noc(C(F)(F)F)n2)cc1 (centres unmarked) [Example 165, N-((1,4-dibenzoylpiperazin-2-yl)methyl)-4-(5-(trifluoromethyl)-1,2,4-oxadiazol-3-yl)benzamide]	99	17	–	–
O=C(NCC1COCCN1C(=O)C12CC3CC(CC(C3)C1)C2)c1ccc(-c2noc(C(F)(F)F)n2)cc1 (stereo in doubt) [Example 97, N-(((3S)-4-(adamantan-1-ylcarbonyl)morpholin-3-yl)methyl)-4-(5-(trifluoromethyl)-1,2,4-oxadiazol-3-yl)benzamide]	96	16	–	–
O=C(NC[C@H]1COCCN1C(=O)N1CCCC1CCO)c1ccc(-c2noc(C(F)(F)F)n2)cc1 (stereo partly drawn) [Example 305, N-(((3S)-4-((2-(2-hydroxyethyl)pyrrolidin-1-yl)carbonyl)morpholin-3-yl)methyl)-4-(5-(trifluoromethyl)-1,2,4-oxadiazol-3-yl)benzamide]	99	5	–	–
O=C(NC[C@H]1COCCN1C(=O)N1CCOCC1CO)c1ccc(-c2noc(C(F)(F)F)n2)cc1 (stereo partly drawn) [Example 311, N-(((3S)-4-((3-(hydroxymethyl)morpholin-4-yl)carbonyl)morpholin-3-yl)methyl)-4-(5-(trifluoromethyl)-1,2,4-oxadiazol-3-yl)benzamide]	–	–	96	7
O=C(NC[C@H]1COCCN1C(=O)N1CCCC(F)(F)C1)c1ccc(-c2noc(C(F)(F)F)n2)cc1 [Example 307, N-(((3S)-4-((3,3-difluoropiperidin-1-yl)carbonyl)morpholin-3-yl)methyl)-4-(5-(trifluoromethyl)-1,2,4-oxadiazol-3-yl)benzamide]	98	9	–	–

Second part, the molecule after the results:

inhibition at 1 µM (HDAC6 enzyme) [%]	inhibition at 1 µM (HDAC1 enzyme) [%]	HDAC6 inhibitory rate (%) (1 μM) (HDAC6 enzyme)	HDAC1 inhibitory rate (%) (1 μM) (HDAC1 enzyme)	Structure (SMILES)
15	4	–	–	O=C(NC[C@H]1COCCN1C(=O)Cn1cnccc1=O)c1ccc(-c2noc(C(F)(F)F)n2)cc1 [Example 83, N-(((3S)-4-((6-oxopyrimidin-1(6H)-yl)acetyl)morpholin-3-yl)methyl)-4-(5-(trifluoromethyl)-1,2,4-oxadiazol-3-yl)benzamide]
99	30	–	–	CC(C)(C(=O)N1CCOCC1CNC(=O)c1ccc(-c2noc(C(F)(F)F)n2)cc1)c1ccccc1 (stereo in doubt) [Example 95, N-(((3S)-4-(2-methyl-2-phenylpropanoyl)morpholin-3-yl)methyl)-4-(5-(trifluoromethyl)-1,2,4-oxadiazol-3-yl)benzamide]
99	21	–	–	Cc1ccc(C(=O)N2CCOCC2CNC(=O)c2ccc(-c3noc(C(F)(F)F)n3)cc2)cc1 (centres unmarked) [Example 11, N-((4-(4-methylbenzoyl)morpholin-3-yl)methyl)-4-(5-(trifluoromethyl)-1,2,4-oxadiazol-3-yl)benzamide]
95	10	–	–	O=C(NCC1COCCN1C(=O)C1CCOCC1)c1ccc(-c2noc(C(F)(F)F)n2)cc1 (centres unmarked) [Example 26, N-((4-(tetrahydro-2H-pyran-4-ylcarbonyl)morpholin-3-yl)methyl)-4-(5-(trifluoromethyl)-1,2,4-oxadiazol-3-yl)benzamide]
98	24	–	–	O=C(NCC1COCCN1C(=O)c1cc(Cl)cc(Cl)c1)c1ccc(-c2noc(C(F)(F)F)n2)cc1 (centres unmarked) [Example 30, N-((4-(3,5-dichlorobenzoyl)morpholin-3-yl)methyl)-4-(5-(trifluoromethyl)-1,2,4-oxadiazol-3-yl)benzamide]
–	–	98	65	O=C(NC[C@H]1COCCN1C(=O)c1cccc(F)c1)c1ccc(-c2noc(C(F)(F)F)n2)cc1 [Example 41, N-(((3S)-4-(3-fluorobenzoyl)morpholin-3-yl)methyl)-4-(5-(trifluoromethyl)-1,2,4-oxadiazol-3-yl)benzamide]
99	15	–	–	O=C(NC[C@@H]1COCCN1C(=O)c1cc(F)cc(F)c1)c1ccc(-c2noc(C(F)(F)F)n2)cc1 [Example 155, N-(((3R)-4-(3,5-difluorobenzoyl)morpholin-3-yl)methyl)-4-(5-(trifluoromethyl)-1,2,4-oxadiazol-3-yl)benzamide]
99	17	–	–	Cc1oncc1C(=O)N1CCOCC1CNC(=O)c1ccc(-c2noc(C(F)(F)F)n2)s1 (centres unmarked) [Example 235, N-((4-((5-methyl-1,2-oxazol-4-yl)carbonyl)morpholin-3-yl)methyl)-5-(5-(trifluoromethyl)-1,2,4-oxadiazol-3-yl)thiophene-2-carboxamide]
101	21	–	–	O=C(NCC1COCCN1C(=O)c1ccccc1)c1ccc(-c2noc(C(F)(F)F)n2)cc1 (stereo in doubt) [Example 111, N-(((3R)-4-benzoylmorpholin-3-yl)methyl)-4-(5-(trifluoromethyl)-1,2,4-oxadiazol-3-yl)benzamide]
96	23	–	–	O=C(NCC1COCCN1C(=O)c1ccccc1)c1ccc(-c2noc(C(F)(F)F)n2)s1 (centres unmarked) [Example 210, N-((4-benzoylmorpholin-3-yl)methyl)-5-(5-(trifluoromethyl)-1,2,4-oxadiazol-3-yl)thiophene-2-carboxamide]
99	17	–	–	CC(C)(C(=O)N1CCOCC1CNC(=O)c1ccc(-c2noc(C(F)(F)F)n2)cc1)n1cccn1 (stereo in doubt) [Example 101, N-(((3S)-4-(2-methyl-2-(1H-pyrazol-1-yl)propanoyl)morpholin-3-yl)methyl)-4-(5-(trifluoromethyl)-1,2,4-oxadiazol-3-yl)benzamide]
97	14	–	–	Cc1cc(C(=O)N2CCOC[C@@H]2CNC(=O)c2ccc(-c3noc(C(F)(F)F)n3)cc2)n(C)n1 [Example 63, N-(((3S)-4-((1,3-dimethyl-1H-pyrazol-5-yl)carbonyl)morpholin-3-yl)methyl)-4-(5-(trifluoromethyl)-1,2,4-oxadiazol-3-yl)benzamide]
97	57	–	–	O=C(NC[C@H]1COCCN1C(=O)c1cc(Cl)cc(Cl)c1)c1ccc(-c2noc(C(F)(F)F)n2)cn1 [Example 183, N-(((3S)-4-(3,5-dichlorobenzoyl)morpholin-3-yl)methyl)-5-(5-(trifluoromethyl)-1,2,4-oxadiazol-3-yl)pyridine-2-carboxamide]
